{"source": "ChEMBL document CHEMBL1201862", "about": "“PubChem BioAssay data set” (2004)", "key": {"[1]": {"assay": "NIH-3T3 fibroblast cytotoxicity, dose response, cytotoxicity control, cell-based, fluorescence, Alamar Blue, secondary assay (AID 2327);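 further: NIH-3T3 mouse fibroblasts cultured with fluconazole at 8 µg/mL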", "assay_type": "functional"}, "[2]": {"target": "T1, Bcl-2-like protein 10 (Homo sapiens, UniProt Q9HD36)", "T1 sequence (Q9HD36 whole entry)": "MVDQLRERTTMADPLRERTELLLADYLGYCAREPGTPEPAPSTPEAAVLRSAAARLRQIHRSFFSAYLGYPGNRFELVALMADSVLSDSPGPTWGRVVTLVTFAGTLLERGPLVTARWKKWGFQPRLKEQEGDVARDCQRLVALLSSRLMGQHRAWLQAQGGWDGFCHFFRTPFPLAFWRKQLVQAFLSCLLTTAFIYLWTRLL", "assay": "Bcl-B/TR3 peptide binding disruption – biochemical, fluorescence polarization, FITC-TR3 peptide, selectivity assay for Bfl-1 inhibitor project, primary screen (AID 748);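 further: fluorescence polarization from a fluorescein-labelled TR3 peptide binding purified Bcl-B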"}, "[3]": {"assay": "fluconazole-exposed Candida albicans growth modulators – fluorescence, retest, confirmation (AID 2467)", "assay_type": "functional, cell-based"}, "[4]": {"target": "Estrogen receptor beta (Homo sapiens, UniProt Q92731)", "sequence (Q92731 whole entry)": "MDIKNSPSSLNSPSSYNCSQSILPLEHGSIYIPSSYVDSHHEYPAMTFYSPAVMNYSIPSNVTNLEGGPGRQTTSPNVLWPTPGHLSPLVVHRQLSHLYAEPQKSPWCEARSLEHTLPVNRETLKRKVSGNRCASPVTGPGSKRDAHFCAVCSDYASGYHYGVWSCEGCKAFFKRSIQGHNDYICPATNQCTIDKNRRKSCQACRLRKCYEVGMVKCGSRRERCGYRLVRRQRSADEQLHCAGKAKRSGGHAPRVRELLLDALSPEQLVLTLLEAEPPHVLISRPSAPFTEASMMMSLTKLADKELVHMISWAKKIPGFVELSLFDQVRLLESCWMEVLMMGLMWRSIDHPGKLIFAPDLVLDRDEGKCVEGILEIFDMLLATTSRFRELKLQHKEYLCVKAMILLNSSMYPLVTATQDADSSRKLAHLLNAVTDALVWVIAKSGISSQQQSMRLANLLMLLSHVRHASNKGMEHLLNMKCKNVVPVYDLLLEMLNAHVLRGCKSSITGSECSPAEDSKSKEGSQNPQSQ", "assay": "blockers of SRC-3 recruitment to ERβ – biochemical, ELISA, streptavidin-HRP readout, orthogonal assay, confirmation (AID 1060)"}, "[5]": {"target": "T2, Mannose-6-phosphate isomerase (Homo sapiens, UniProt P34949)", "T2 sequence (P34949 whole entry)": "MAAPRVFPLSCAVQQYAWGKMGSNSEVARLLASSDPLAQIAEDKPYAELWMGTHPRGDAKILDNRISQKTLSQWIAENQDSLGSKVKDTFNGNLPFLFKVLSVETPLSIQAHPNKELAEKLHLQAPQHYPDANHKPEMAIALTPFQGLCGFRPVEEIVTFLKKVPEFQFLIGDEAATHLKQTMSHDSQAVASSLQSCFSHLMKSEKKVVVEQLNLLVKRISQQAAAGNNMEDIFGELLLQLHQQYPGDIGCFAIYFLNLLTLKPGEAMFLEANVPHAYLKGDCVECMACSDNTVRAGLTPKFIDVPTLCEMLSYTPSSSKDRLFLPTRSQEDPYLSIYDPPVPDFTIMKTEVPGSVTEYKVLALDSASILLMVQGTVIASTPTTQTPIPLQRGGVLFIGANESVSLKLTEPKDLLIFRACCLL", "assay": "MPI inhibition at elevated mannose 6-phosphate – biochemical, fluorescence intensity, high mannose 6-phosphate, primary screen (AID 1220)"}, "[6]": {"target": "Alkaline phosphatase, placental type (Homo sapiens, UniProt P05187)", "sequence (P05187 whole entry)": "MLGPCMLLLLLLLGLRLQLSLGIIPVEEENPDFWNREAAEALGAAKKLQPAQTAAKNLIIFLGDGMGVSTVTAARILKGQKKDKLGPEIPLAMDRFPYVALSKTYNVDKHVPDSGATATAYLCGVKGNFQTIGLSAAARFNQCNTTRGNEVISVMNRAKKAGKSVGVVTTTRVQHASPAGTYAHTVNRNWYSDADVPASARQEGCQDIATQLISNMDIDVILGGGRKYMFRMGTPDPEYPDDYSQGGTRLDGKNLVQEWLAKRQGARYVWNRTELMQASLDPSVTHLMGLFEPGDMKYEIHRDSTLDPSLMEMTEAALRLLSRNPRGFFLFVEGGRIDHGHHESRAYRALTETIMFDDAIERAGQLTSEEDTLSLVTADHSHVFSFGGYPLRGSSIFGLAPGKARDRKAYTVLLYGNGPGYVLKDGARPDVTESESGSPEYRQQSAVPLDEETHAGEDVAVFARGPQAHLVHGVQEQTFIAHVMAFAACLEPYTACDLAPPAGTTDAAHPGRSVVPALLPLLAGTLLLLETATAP", "assay": "human placental alkaline phosphatase inhibition – biochemical, luminescence, confirmation (AID 1512)", "assay_type": "functional"}, "[7]": {"target": "Genome polyprotein (dengue virus type 2, UniProt P29990)", "sequence (P29990 2492-3391 limits assumed)": "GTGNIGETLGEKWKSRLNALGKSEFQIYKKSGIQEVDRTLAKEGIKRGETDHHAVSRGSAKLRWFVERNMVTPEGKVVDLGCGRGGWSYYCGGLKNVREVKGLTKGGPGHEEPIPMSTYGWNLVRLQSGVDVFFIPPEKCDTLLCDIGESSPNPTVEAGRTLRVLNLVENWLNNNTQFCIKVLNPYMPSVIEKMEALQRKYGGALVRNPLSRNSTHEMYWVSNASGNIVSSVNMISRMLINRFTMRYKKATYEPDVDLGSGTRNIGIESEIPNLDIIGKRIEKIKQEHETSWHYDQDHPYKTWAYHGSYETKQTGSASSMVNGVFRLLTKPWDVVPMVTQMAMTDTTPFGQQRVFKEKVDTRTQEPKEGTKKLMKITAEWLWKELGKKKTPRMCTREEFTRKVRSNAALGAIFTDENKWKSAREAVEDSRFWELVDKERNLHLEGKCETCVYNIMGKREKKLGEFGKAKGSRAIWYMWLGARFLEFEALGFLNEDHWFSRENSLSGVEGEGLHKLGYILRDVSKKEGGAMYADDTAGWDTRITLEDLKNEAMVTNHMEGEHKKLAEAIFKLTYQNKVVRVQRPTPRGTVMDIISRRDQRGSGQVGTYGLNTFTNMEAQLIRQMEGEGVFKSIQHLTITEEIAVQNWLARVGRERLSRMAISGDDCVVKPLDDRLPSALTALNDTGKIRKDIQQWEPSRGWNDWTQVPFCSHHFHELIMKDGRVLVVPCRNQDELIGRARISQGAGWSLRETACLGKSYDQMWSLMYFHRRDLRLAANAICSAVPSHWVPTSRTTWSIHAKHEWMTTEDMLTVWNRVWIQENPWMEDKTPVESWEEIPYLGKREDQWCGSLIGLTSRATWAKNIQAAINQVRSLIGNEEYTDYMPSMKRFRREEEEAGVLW", "assay": "flavivirus cap methylation enzyme inhibition – biochemical, confirmation dose response, primary screen (AID 588689)", "assay_type": "functional"}, "[8]": {"target": "T3, Leucine aminopeptidase (Plasmodium falciparum 3D7, UniProt Q8IL11)", "T3 sequence (Q8IL11 whole entry)": "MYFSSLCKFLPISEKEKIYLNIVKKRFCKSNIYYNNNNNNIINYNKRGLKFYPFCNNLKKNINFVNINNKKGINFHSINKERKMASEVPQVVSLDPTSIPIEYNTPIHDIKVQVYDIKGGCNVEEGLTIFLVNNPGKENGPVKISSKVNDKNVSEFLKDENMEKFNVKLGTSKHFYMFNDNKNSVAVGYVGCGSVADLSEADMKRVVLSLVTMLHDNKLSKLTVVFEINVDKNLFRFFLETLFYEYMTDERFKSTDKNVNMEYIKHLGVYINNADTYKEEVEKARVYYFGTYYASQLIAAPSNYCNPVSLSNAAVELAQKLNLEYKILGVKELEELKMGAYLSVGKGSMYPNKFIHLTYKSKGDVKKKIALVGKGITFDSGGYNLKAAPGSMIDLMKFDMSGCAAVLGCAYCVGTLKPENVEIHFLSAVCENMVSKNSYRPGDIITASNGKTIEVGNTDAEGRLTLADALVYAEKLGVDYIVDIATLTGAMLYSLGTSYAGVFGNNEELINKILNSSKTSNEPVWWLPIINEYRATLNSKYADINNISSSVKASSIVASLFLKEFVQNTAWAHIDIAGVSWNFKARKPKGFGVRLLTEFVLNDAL", "assay": "P. falciparum M17LAP inhibitors, primary screen, biochemical, fluorogenic H-Leu-NHMec substrate, 1536-well (AID 1619)", "assay_type": "functional"}, "[9]": {"assay": "Luminescence Cell-Based Dose Retest to Confirm Inhibitors of Cancer Stem Cells. [Related pubchem assays (depositor defined):AID2717, AID2721]", "assay_type": "functional", "conditions": "Homo sapiens"}, "[10]": {"target": "T4, Short transient receptor potential channel 4 (Mus musculus, UniProt Q9QUQ5)", "T4 sequence (Q9QUQ5 whole entry)": "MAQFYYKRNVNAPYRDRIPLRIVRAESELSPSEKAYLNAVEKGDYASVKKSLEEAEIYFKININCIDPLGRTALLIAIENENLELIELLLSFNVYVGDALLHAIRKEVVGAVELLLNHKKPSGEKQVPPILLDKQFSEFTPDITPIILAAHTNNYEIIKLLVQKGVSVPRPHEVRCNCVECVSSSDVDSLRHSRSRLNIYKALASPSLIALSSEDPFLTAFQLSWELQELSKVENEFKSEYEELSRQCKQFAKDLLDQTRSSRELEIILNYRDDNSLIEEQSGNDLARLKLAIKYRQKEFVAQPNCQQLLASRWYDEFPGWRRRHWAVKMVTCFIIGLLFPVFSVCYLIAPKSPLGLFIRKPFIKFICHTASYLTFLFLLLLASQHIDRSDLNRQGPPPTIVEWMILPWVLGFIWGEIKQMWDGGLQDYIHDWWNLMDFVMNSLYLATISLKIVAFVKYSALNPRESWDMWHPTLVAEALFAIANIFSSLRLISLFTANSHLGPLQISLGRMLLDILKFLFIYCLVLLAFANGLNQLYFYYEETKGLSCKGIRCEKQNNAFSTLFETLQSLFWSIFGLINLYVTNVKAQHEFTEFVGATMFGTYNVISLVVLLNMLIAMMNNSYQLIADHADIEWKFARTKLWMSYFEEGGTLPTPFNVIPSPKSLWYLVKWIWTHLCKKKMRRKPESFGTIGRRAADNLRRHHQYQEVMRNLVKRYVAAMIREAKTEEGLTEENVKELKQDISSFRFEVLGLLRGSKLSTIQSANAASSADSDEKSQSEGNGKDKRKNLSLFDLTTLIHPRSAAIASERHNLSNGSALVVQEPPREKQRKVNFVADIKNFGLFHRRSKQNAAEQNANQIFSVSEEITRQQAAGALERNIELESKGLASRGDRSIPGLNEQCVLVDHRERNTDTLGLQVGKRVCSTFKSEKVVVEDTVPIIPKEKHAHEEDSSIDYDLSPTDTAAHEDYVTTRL", "assay": "block of DAMGO-driven TRPC4 calcium entry – cell-based, HEK293 TRPC4/mu-opioid, Fluo-4 calcium, dose response (AID 434942);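 further: potency of inhibitors blocking the TRPC4 calcium response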", "assay_type": "functional"}, "[11]": {"target": "Troponin, cardiac muscle (Homo sapiens, UniProt P19429+P45379+P63316)", "assay": "Fluorescence-based biochemical high throughput dose response assay for activators of the calcium sensitivity of cardiac Regulated Thin Filaments (RTF). [Related pubchem assays (depositor defined):AID493008, AID493018, AID504382, AID504383]", "assay_type": "protein-complex assay"}, "[12]": {"target": "T5, Sphingosine 1-phosphate receptor 4 (Homo sapiens, UniProt O95977)", "T5 sequence (O95977 whole entry)": "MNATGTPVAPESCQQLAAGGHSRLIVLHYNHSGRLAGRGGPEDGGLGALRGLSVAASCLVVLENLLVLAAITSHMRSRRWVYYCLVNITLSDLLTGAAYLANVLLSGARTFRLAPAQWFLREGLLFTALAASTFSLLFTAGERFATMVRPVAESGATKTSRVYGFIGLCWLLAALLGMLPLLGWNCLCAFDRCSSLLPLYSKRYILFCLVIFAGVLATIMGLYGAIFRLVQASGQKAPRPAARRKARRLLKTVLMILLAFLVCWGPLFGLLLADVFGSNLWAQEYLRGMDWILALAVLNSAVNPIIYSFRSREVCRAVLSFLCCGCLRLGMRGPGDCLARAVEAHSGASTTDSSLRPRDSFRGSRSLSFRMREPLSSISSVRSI", "assay": "Late-stage fluorescence dose response cell-based assay to identify agonists of the Sphingosine 1-Phosphate Receptor 4 (S1P4): purchased compounds EC50. [Related pubchem assays (depositor defined):AID1509, AID1523, AID1563, AID1686, AID1701, AID1801]", "assay_type": "functional"}}, "note": "The source made the active and inactive calls.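 Wherever AC50 is given: cells exposed to compound for roughly 70 hours or longer before luminescence read.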"}
{"smiles": "O=C(Cc1cnn(-c2ccccc2)c1)c1ccc(O)c(O)c1O", "values": [{"measurement": "EC50", "setting": "[1]", "result": "> 150 µM (inactive)"}, {"measurement": "IC50", "setting": "[2]", "result": "39.5 µM (active)"}, {"measurement": "EC50", "setting": "[3]", "result": "> 38 µM (not active)"}, {"measurement": "IC50", "setting": "[4]", "result": "34.5 µM (not active)"}, {"measurement": "IC50", "setting": "[5]", "result": "4.69 µM (active)"}, {"measurement": "IC50", "setting": "[6]", "result": "> 100 µM (inactive)"}, {"measurement": "IC50", "setting": "[7]", "result": "75.7 µM (active)"}]}
{"smiles": "O=C(Nc1cc(N2CCOCC2)ncn1)NC1(C(F)(F)F)Oc2ccc(Cl)cc2O1", "note": "(stereo not given)", "values": [{"measurement": "IC50", "setting": "[8]", "result": "32.4 µM (active)"}, {"measurement": "IC50", "setting": "[5]", "result": "18.1 µM (active)"}, {"measurement": "AC50", "setting": "[9]", "result": "7.43 µM (active)"}, {"measurement": "IC50", "setting": "[6]", "result": "10.4 µM (active)"}]}
{"smiles": "COc1cc2ccccc2c2c1CCCC2=O", "values": [{"measurement": "EC50", "setting": "[10]", "result": "2.99 µM (active)"}]}
{"smiles": "CC1=CC(=C(C#N)c2nc3ccccc3s2)C=C(C)N1c1ccc(F)cc1", "values": [{"measurement": "EC50", "setting": "[11]", "result": "> 7.94 µM (active)"}]}
{"smiles": "Cc1ccc(CNC(=O)C(C)OC(=O)c2c(C)nn(Cc3ccc(C)cc3)c2Cl)cc1", "note": "(stereo not given)", "values": [{"measurement": "EC50", "setting": "[12]", "result": "> 50 µM (inactive)"}]}
{"smiles": "CCNC(=O)NC(=O)C(C)OC(=O)c1cc2c(C)nn(Cc3ccccc3)c2s1", "note": "(stereo not given)", "values": [{"measurement": "EC50", "setting": "[12]", "result": "> 50 µM (inactive)"}]}
